Literature values as cited in US11819781B2, “Device for solid phase extraction and method for use thereof” (Waters Technologies Corporation, priority 2014, dated 2023).

Conditions: analyte characteristics; for Log P: octanol:water

Log P	pKa	SMILES
1.1		C[C@H]1C[C@H]2[C@@H]3CCC4=CC(=O)C=C[C@]4(C)[C@@]3(F)[C@@H](O)C[C@]2(C)[C@@]1(O)C(=O)CO [Betamethasone]
4.8	9.7	CN(C)CCC=C1c2ccccc2CCc2ccccc21 [Amitriptyline]
4.4		CNCCCC1c2ccccc2C=Cc2ccccc21 [Protriptyline]
